Here are results for ten compounds from ChEMBL document CHEMBL1201862, “PubChem BioAssay data set” (2004).

Some test systems named below: A498; A549; ACHN; CAKI-1; EKVX; HCT-116; HOP-62; K562; KM12; MDA-MB-231; MOLT-4; NCI-H23; PC-3; SF-268; SF-295; SK-MEL-28; SNB-19; TK-10; UACC-257; UACC-62.
Common to all, as to assay: inhibition of tumour cell growth, NCI panel, 48 h

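Dose response: 5 concentrations. Exposure: 48 h. Format: 96-well plates. Endpoint: linear interpolation; highest concentration if not reached. GI50 is the concentration that inhibits growth by half.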 The source made the active and inactive calls. No stated cut-off is given here; in the data, active = GI50 up to about 1.1 µM and inactive = higher.

As to `O=[As](O)(O)c1ccc(Cc2ccc([As](=O)(O)O)cc2)cc1`, the GI50 in the test on A498 is 2.12 µM (inactive); in the test on A549, 1.81 µM (inactive); with ACHN it was 1.03 µM (active); in the test on CAKI-1 it was 0.955 µM (active); in the test with EKVX it was 1.13 µM (inactive); in the test on HCT-116, 0.895 µM (active). The GI50 with HOP-62 was 1.31 µM (inactive); in the test with K562, 0.265 µM (active); in the test with KM12, 1.91 µM (inactive); in the test on MDA-MB-231 it was 1.01 µM (active); in the test with MOLT-4, 0.457 µM (active); with NCI-H23 it was 0.773 µM (active). Besides, the GI50 was 0.546 µM (active) in the test with PC-3; 0.434 µM (active) with SF-268; 2.78 µM (inactive) in the test with SF-295; 1.32 µM (inactive) in the test on SK-MEL-28; 1.15 µM (inactive) in the test with SNB-19; 0.547 µM (active) in the test on TK-10. The GI50 is 0.499 µM (active) with UACC-257 and 1.28 µM (inactive) in the test with UACC-62.
`COc1cc(N(C)C)ccc1C=c1c2ccccc2n2c1cc(-c1ccccc1)[n+]2C`: the GI50 was 1.65 µM (inactive) in the test with A498; 0.197 µM (active) in the test with A549; 0.29 µM (active) in the test on ACHN; 0.472 µM (active) in the test on CAKI-1; 0.575 µM (active) in the test on EKVX; 0.175 µM (active) in the test with HCT-116. In addition, the GI50 in the test with HOP-62 is 0.275 µM (active); with K562, 0.177 µM (active); with KM12, 0.17 µM (active); with MDA-MB-231, 0.332 µM (active); with MOLT-4 it was 0.222 µM (active); in the test on NCI-H23, 0.237 µM (active). Also, the GI50 is 0.233 µM (active) with PC-3; 0.495 µM (active) in the test with SF-268; 0.336 µM (active) in the test with SF-295; 0.802 µM (active) in the test with SK-MEL-28; 0.372 µM (active) in the test on SNB-19; 0.575 µM (active) in the test on TK-10. The GI50 in the test with UACC-257 is 0.319 µM (active); in the test on UACC-62, 0.582 µM (active).
For the compound `N=C(N)Nc1ccc(-c2ccc(NC(=N)N)cc2)cc1`, the GI50 in the test with A498 is 6.95 µM (inactive); with A549, 6.03 µM (inactive); in the test with ACHN, 45.3 µM (inactive); with CAKI-1, 41.1 µM (inactive); in the test with EKVX, 40.3 µM (inactive); in the test with HCT-116 it was 28.8 µM (inactive). Further, the GI50 with HOP-62 was 16.7 µM (inactive); with K562 it was 35.4 µM (inactive); with KM12, 33.5 µM (inactive); in the test on MDA-MB-231, > 100 µM (inactive); with MOLT-4, > 100 µM (inactive); in the test with NCI-H23, 35.6 µM (inactive). Moreover, the GI50 was 15.7 µM (inactive) in the test on PC-3; 37.3 µM (inactive) with SF-268; 17.8 µM (inactive) in the test on SF-295; 45.5 µM (inactive) with SK-MEL-28; 41.4 µM (inactive) in the test on SNB-19; 14.3 µM (inactive) with TK-10. The GI50 was > 73.5 µM (inactive) with UACC-257 and 40.1 µM (inactive) in the test on UACC-62.
Regarding `O=C(COc1ccc(Cl)c(Cl)c1)Nc1ccc[n+](Cc2ccc(S(=O)(=O)F)c(Cl)c2)c1`, the GI50 in the test with A498, with A549, with ACHN, in the test with CAKI-1, in the test with EKVX and with HCT-116 was > 100 µM (inactive) in each case. Moreover, the GI50 in the test on HOP-62 was > 100 µM (inactive); in the test with K562 it was > 100 µM (inactive); in the test on KM12, > 100 µM (inactive); with MDA-MB-231, 36.6 µM (inactive); in the test with MOLT-4 it was 25.4 µM (inactive); in the test with NCI-H23, > 100 µM (inactive). Further, the GI50 in the test on PC-3, with SF-268, with SF-295, in the test with SK-MEL-28, with SNB-19 and in the test on TK-10 was > 100 µM (inactive) throughout. Also, the GI50 in the test on UACC-257 and with UACC-62 was > 100 µM (inactive) in each case.
Regarding `COC1CC(C)([N+](=O)[O-])C(O)C(C)O1` (stereo not given), the GI50 in the test with A498, with A549, with ACHN, with CAKI-1, in the test with EKVX and in the test on HCT-116 was > 100 µM (inactive) in each case. Also, the GI50 in the test on HOP-62, in the test with K562, in the test with KM12, with MDA-MB-231, in the test with MOLT-4 and in the test on NCI-H23 was > 100 µM (inactive) throughout. The GI50 with PC-3, in the test on SF-268, in the test with SF-295, in the test on SK-MEL-28, in the test on SNB-19 and in the test with TK-10 was > 100 µM (inactive) throughout. Moreover, the GI50 in the test on UACC-257 and in the test with UACC-62 was > 100 µM (inactive) each time.
In the case of `COc1cc(-c2[nH]ccc2Cl)oc1C1=C2N=C3C=C2C(C(C)C)C1CCCCCCCC3` (stereo not given), the GI50 was 2.16 µM (inactive) with A498; 0.912 µM (active) in the test on A549; 0.971 µM (active) in the test with ACHN; 2 µM (inactive) in the test on CAKI-1; 0.944 µM (active) with EKVX; 0.307 µM (active) with HCT-116. Besides, the GI50 was 0.774 µM (active) in the test on HOP-62; 0.403 µM (active) in the test with K562; 0.476 µM (active) in the test on KM12; 0.279 µM (active) in the test with MDA-MB-231; 0.433 µM (active) with MOLT-4; 0.738 µM (active) in the test with NCI-H23. The GI50 is 0.332 µM (active) in the test on PC-3; 1.08 µM (active) with SF-268; 1.15 µM (inactive) in the test with SF-295; 1.35 µM (inactive) in the test on SK-MEL-28; 1.69 µM (inactive) with SNB-19; 2.05 µM (inactive) in the test on TK-10. The GI50 in the test on UACC-257 was 1.29 µM (inactive); in the test with UACC-62, 0.794 µM (active).
Regarding `CC(=O)O[C@@H]1C=C(C)[C@H](CBr)O[C@@]2(C)CC[C@H](Br)C(C)(C)[C@H]12`, the GI50 with A498, in the test on A549, in the test on ACHN, with CAKI-1, in the test on EKVX and in the test with HCT-116 was > 100 µM (inactive) throughout. Besides, the GI50 was > 100 µM (inactive) with HOP-62; 25.3 µM (inactive) in the test on K562; > 100 µM (inactive) in the test with KM12; > 100 µM (inactive) in the test on MDA-MB-231; 77.6 µM (inactive) in the test with MOLT-4; > 100 µM (inactive) with NCI-H23. In addition, the GI50 in the test on PC-3, with SF-268, with SF-295, in the test on SK-MEL-28, in the test with SNB-19 and in the test on TK-10 was > 100 µM (inactive) each time. In addition, the GI50 with UACC-257 and in the test with UACC-62 was > 100 µM (inactive) in each case.
With `Cc1cc2c(cc1C)C(=O)C1(C2)Cc2cc3c(cc2C1=O)CCC3` (stereo not given), the GI50 in the test with A498, in the test with A549, in the test on ACHN, with CAKI-1, with EKVX and in the test on HCT-116 was > 100 µM (inactive) throughout. The GI50 with K562 was > 100 µM (inactive); in the test on KM12, > 100 µM (inactive); in the test with MDA-MB-231, > 10 µM (inactive); in the test with MOLT-4, > 100 µM (inactive); in the test with NCI-H23, > 100 µM (inactive); in the test with PC-3, > 100 µM (inactive). Moreover, the GI50 with SF-268, with SF-295, with SK-MEL-28, with SNB-19, with TK-10 and with UACC-257 was > 100 µM (inactive) each time. Also, the GI50 in the test on UACC-62 was > 100 µM (inactive).
On to `CCCCC1Cc2ccccc2-c2nc3ccccc3n21` (stereo not given), for which the GI50 is 16.7 µM (inactive) in the test on A498; 17.1 µM (inactive) in the test on ACHN; 15.5 µM (inactive) in the test with CAKI-1; 21 µM (inactive) in the test on EKVX; 12.6 µM (inactive) with HCT-116; 19.1 µM (inactive) in the test with HOP-62. In addition, the GI50 was 12.6 µM (inactive) in the test with K562; 15.4 µM (inactive) in the test on KM12; 17.3 µM (inactive) in the test on MDA-MB-231; 13.6 µM (inactive) in the test with MOLT-4; 14.9 µM (inactive) in the test with NCI-H23; 10.3 µM (inactive) in the test with PC-3. The GI50 was 17.3 µM (inactive) with SF-268; 15 µM (inactive) in the test on SF-295; 16.7 µM (inactive) with SK-MEL-28; 17.4 µM (inactive) with TK-10; 17.5 µM (inactive) in the test on UACC-257.
As to `COc1cc(/C=C2\N=C(c3ccccc3)N(c3ccc(C(=O)c4ccccc4)cc3N3C(=O)/C(=C/c4ccc(O)c(OC)c4)N=C3c3ccccc3)C2=O)ccc1O`, the GI50 with A498 is 6.92 µM (inactive); in the test on A549 it was 11.4 µM (inactive); in the test with ACHN it was 17.5 µM (inactive); in the test on CAKI-1, 18.7 µM (inactive); in the test on EKVX, 25.9 µM (inactive); with HCT-116, 5.62 µM (inactive). Moreover, the GI50 was 14.5 µM (inactive) with HOP-62; 5.18 µM (inactive) in the test on K562; 8.73 µM (inactive) with KM12; 12.9 µM (inactive) in the test on MDA-MB-231; 3.3 µM (inactive) in the test with MOLT-4; 11.8 µM (inactive) in the test on PC-3. Also, the GI50 in the test on SF-268 is 15.3 µM (inactive); in the test on SF-295, 6.43 µM (inactive); in the test on SK-MEL-28, 21.2 µM (inactive); in the test on SNB-19, 19.5 µM (inactive); with TK-10, 18.5 µM (inactive); with UACC-257, 16.8 µM (inactive). Further, in the test on UACC-62, the GI50 is 9.62 µM (inactive).
